As usually defined, the Inhibition is the percentage by which the read-out fell short of the control. Lower therefore signals a weak effect. The Km is the substrate concentration at which the rate is half of its maximum.

Results on five molecules are retold here after patent publication US9725702B2, “Laccase from ganoderma lucidum capable of enhancing enzymatic degradation of lignocellulolytic biomass” (DANMARKS TEKNISKE UNIVERSITET, priority 2012, dated 2017).

The test system of data set [1] is LacGL1 laccase from Ganoderma lucidum, expressed in Pichia pastoris. In kind it is biochemical. As to the method: (§1) The laccase activity was measured based on a modified method of Ters et al. (2009). The laccase activity was defined as the amount of the enzyme required to oxidise 1 μmol of ABTS per minute at 25° C., and pH 4.7. The assay mixture contained: 0.1 M citrate-phosphate buffer (255 μL, pH 4.7), ABTS (5 μL, 4 mM (ABTS stock solution)), and pre-diluted laccase (5 μL) that ensured the linear range of Michaelis-Menten kinetics. The oxidation of ABTS was monitored at 420 nm (ε420=36800 M^−1cm^−1) for 2 min. in an Infinite 200 microtiter plate reader (Tecan, Salzburg, Austria). Laccase activity assays on the substrates: hydroquinone (248 nm), 2.6-dimethoxyphenol (470 nm), and guaiacol (436 nm) was done similarly with the substrate concentration as described in Table 2 using the following extinction coefficient values: 17.542 M^−1cm^−1, 35.645 M^−1cm^−1, and 6.400 M^−1cm^−1, respectively (Minussi et al. 2007). The data collection was monitored by the program Tecan i-control version 1.5.14.0 (Tecan, Salzburg, Austria).

The next data set has as its system fungal laccase. In kind it is biochemical, Ganoderma lucidum. As to the method:
as §1

The subject of data set [2] is laccase from the crude extract of G. lucidum (Lac_GLCE). In kind it is biochemical, Ganoderma lucidum. As to the method: as §1
Data set [3] in a line: Michaelis constant (Km) of laccase for ABTS, Hanes-Wolf plot. The note with it: substrate ABTS. In kind it is biochemical.
Data set [4] can be described thus: Laccase-cellulase catalyzed hydrolysis of pretreated biomass, glucose release. The note with it: with cellulase 1 or 2, pH 5.1, 50° C., 30 hour, p<0.05. In kind it is biochemical. As to the method:
FIG. 13. A graphical comparison of glucose released over time during hydrolysis of STEX-SCB at pH 5.1 and 50° C. by each of commercial enzyme preparations Cellulase 1 (CC2) [A]; or Cellulase 2 [B], either alone, or in combination with a laccase enzyme; the tested laccases being respectively LacGL1 and GLlac1 (LacJooSS; Q9HG17) derived from G. lucidum; and laccases derived from Agaricus bisporus (Sigma 40452), Pleurotus ostreatus (Sigma 75117) and, Trametes versicolor (Sigma 51639).
(§2) The commercial fungal laccases were purchased as lyophilized protein samples from Sigma Aldrich. A solution of each of the above 5 laccases was prepared in a citric buffer containing 20% of glycerol (pH 5.1, 100 mM).
(§3) Two different commercially available cellulase enzyme preparations used in the comparative study were “Cellulase 1” and “Cellulase 2”, which were tested in combination with each of the laccases listed above.
(§4) The three different types of pretreated biomass used in the comparative study were sugarcane bagasse, barley straw and wheat straw. The source and pre-treatment of the sugarcane bagasse by steam explosion was as set out in Example 9. […] The composition of the dry and the pretreated biomass were determined according to the US National Renewable Energy Laboratory (NREL) procedures (Sluiter et al, 2010).
(§5) The laccase-cellulase catalyzed hydrolysis of the pretreated biomass samples to release glucose was performed as follows: Hydrolysis of 5% (w/v) samples of pretreated sugarcane bagasse, barley straw, and wheat straw biomass were assayed using an Enzyme/Substrate (E/S) ratio of 0.064% w/w for laccases and of 0.4% w/w for each commercial cellulase preparation in each hydrolysis reaction. The E/S dosage was based on the total protein concentration used, as determined using Pierce BCA (BiCinchoninic Acid) protein assay kit microplate procedure according to manufacturer's instruction (Thermo Fisher Scientific, Rockford, US). […]
(§6) Laccase and cellulase-mediated hydrolysis of the 3 biomass forms, measured as glucose release, are shown graphically in FIGS. 13, 14 and 15. […]

Test in data set [5]: as above
In kind it is biochemical. The note with it: with cellulase 1 or 2, pH 5.1, 50° C., 30 hour, p<0.05. As to the method: FIG. 14. A graphical comparison of glucose released over time during hydrolysis of pre-treated barley straw at pH 5.1 and 50° C. by each of commercial enzyme preparations Cellulase 1 (CC2) [A]; or Cellulase 2 [B], either alone, or in combination with a laccase enzyme; the tested laccases being respectively LacGL1 and GLlac1 (LacJooSS; Q9HG17) derived from G. lucidum; and laccases derived from Agaricus bisporus (Sigma 40452), Pleurotus ostreatus (Sigma 75117) and, Trametes versicolor (Sigma 51639).
as §2, §3, §4, §5, §6
The source holds these as a separate data set.

Test in data set [6]: as above
In kind it is biochemical. The note with it: with cellulase 1 or 2, pH 5.1, 50° C., 30 hour, p<0.05. Here is the method: FIG. 15. A graphical comparison of glucose released over time during hydrolysis of pre-treated wheaty straw at pH 5.1 and 50° C. by each of commercial enzyme preparations Cellulase 1 (CC2) [A]; or Cellulase 2 [B], either alone, or in combination with a laccase enzyme; the tested laccases being respectively LacGL1 and GLlac1 (LacJooSS; Q9HG17) derived from G. lucidum; and laccases derived from Agaricus bisporus (Sigma 40452), Pleurotus ostreatus (Sigma 75117) and, Trametes versicolor (Sigma 51639).
as §2, §3, §4, §5, §6
This is another data set of the same source.

For data set [7] the following is noted: cited from earlier work; for Km: ABTS, expressed in Pichia pastoris (Sun et al., 2012).

Where two headings read alike, the source gives them in different places.

For the molecule `O[C@H](CS)[C@H](O)CS` (racemic) [Dithiothreitol], the Inhibition (in data set [1] (0.5 mM); with fungal laccase (0.5 mM); in data set [2] (0.5 mM)) was 100% throughout.
Turning to `O=C(O)CN(CCN(CC(=O)O)CC(=O)O)CC(=O)O` [EDTA], the Inhibition in data set [1] was 16%; in the data set on fungal laccase, 16-30%; in data set [2], 30%.
Regarding `[F-].[Na+]` [Sodium fluoride], the Inhibition in data set [1] (0.0001 mM) is on record as 8%; in data set [1] (0.0005 mM), 13%; in data set [1] (0.001 mM), 19%; in data set [1] (0.01 mM), 22%; in data set [1] (0.1 mM), 46%; in the data set with fungal laccase (0.1 mM) it was 46-56%. Also, the Inhibition is given as 23% in data set [2] (0.0001 mM); 24% in data set [2] (0.0005 mM); 28% in data set [2] (0.001 mM); 38% in data set [2] (0.01 mM); 56% in data set [2] (0.1 mM).

B1: Ganoderma lucidum CBS229.93 laccase: Native laccase secreted by Ganoderma lucidum CBS229.93, about 62.5 kDa (protein, listed as Ganoderma lucidum)
chain: MAKFQSLLSCVTLLFAASAYAGIGPKTDLTISNADVAPDGYTRAAVVVNGVFPAPLITGNKGDRFQLNVIDQMTNHTMLKSTSIHWHGFFQKGTNWADGPAFINQCPISSGHSFLYDFQVPDQAGTFWYHSHLSTQYCDGLRGPFVVYDPKDPLKKLYDIDDDSTVITLTDWYHVAARLGPRFPLGSDSTLINGLGRSTTNVTADLAVINVTQGKRYRFRLVSLSCDPNYTFSIDDHNMTVIEADGIETQPVTVNAIQIFSAQRYSFVLTANQTIDNYWIRANPNFGNVGFTDGINSAILRYAGADPVEPTTSQQTTQNLLNEVDLHPFVPKRTPGQPTQGGVDTAINMVFNFNGSNFFINNASFVPPTVPVLLQILSGAQAAQDLLPSGSVYTLPVNKSIELTFPATANAPGAPHPFHLHGHAFAVVRSAGSTVYNYDNPVWRDVVSTGTPAAGDNVTIRFQTDNPGPWFLHCHIDFHLEAGFAVVFAEDPTDTSLANPVPKAWSDLCPTYDALSVDDQ
In the case of B1, the Michaelis-Menten constant (Km) in data set [3] (pH 5) and in data set [3] (laccase expressed in Ganoderma lucidum CBS229.93 (native)) was 107 µM each time.

B2: GLlac1: Laccase from Ganoderma lucidum strain 7071-9 (UniProt Q9HG17, SEQ ID NO: 29), expressed in Pichia pastoris (protein, listed as Ganoderma lucidum)
chain: MVKFQSLLSCVTLLFAASAHAGIGPKADLTISNANIAPDGYTRAAVVVNGVFPGPLITGNKGDRFQLNVIDQLTNHTMLKTTSIHWHGFFQKGTNWADGPAFINQCPIASGHSFLYDFQVPDQAGTFWYHSHLSTQYCDGLRGPFVVYDPKDPLKGLYDVDNDSTVITLSDWYHVAARLGPSFPLGSDSTLINGLGRSTTNATAGLAVINVTQGKRYRFRLVSLSCDPNYTFSIDGHDMSVIEADGIATQPVTANAIQIFSAQRYSFVLTANQTIGNYWIRANPSFGNIGFTNGINSAILRYSGADPIEPTTAQQTTQNLLNEVDLHPFVAKQTPGRATQGGTDVAINMVFNFNGSNFFINNASFTPPTVPVLLQILSGAQAAQDLLPSGSVYTLPINKSIELTFPATVNAPGAPHPFHLHGHSFAVVRSAGSTEYNYNNPVWRDVVSTGTPAAGDNVTIRFQTDNPGPWFLHCHIDFHLEAGFAVVFAEDTADTSLANHVPQAWSDLCPTYDALSADDH
As for B2, the “glucose release compared to the other tested laccases” value in data set [4], in data set [5] and in data set [6] was “significantly enhanced” each time. The results for the Km in data set [7] and in data set [7] (listed as GILCC1) were 995 µM and 996 µM, respectively. In data set [7] (literature), the pH optimum is reported as 2.6.
